# Test results as given in ChEMBL document CHEMBL3044741, “Synthesis of novel biologically active methylene derivatives of sydnones” (Med Chem Res, 2013).
# Assays:
# Staphylococcus aureus [1] = experiment: Antibacterial activity against Staphylococcus aureus MTCC 96 at 250 ug/ml after 24 hrs by Kirby-Bauer method; assay type: functional; details: MTCC 96, 24 h, read-out: IZ
# Candida albicans [2] = experiment: Antifungal activity against Candida albicans MTCC 227; assay type: functional
# [3] = Cytotoxicity against human HEL cells assessed as alteration in cell morphology; assay type: cell-based
# Cytomegalovirus [4] = experiment: Antiviral activity against Cytomegalovirus Davis in HEL cells assessed as reduction in plaque formation; assay type: functional, organism-based; details: Human betaherpesvirus 5, Davis
# [5] = Selectivity index, ratio of CC50 for human MT4 cells to IC50 for HIV1 3B; assay type: functional
# Candida albicans [6] = experiment: Antifungal activity against Candida albicans MTCC 227 at 250 ug/ml after 74 hrs by Kirby-Bauer method; assay type: functional; details: MTCC 227, 74 h, read-out: IZ
# Cytomegalovirus [7] = experiment: Antiviral activity against Cytomegalovirus AD-169 infected in HEL cells assessed as reduction in plaque formation; assay type: functional, organism-based; details: Human betaherpesvirus 5, AD-169, HEL
# Streptococcus pyogenes [8] = experiment: Antibacterial activity against Streptococcus pyogenes MTCC 442 at 250 ug/ml after 24 hrs by Kirby-Bauer method; assay type: functional; details: MTCC 442, 24 h, read-out: IZ
# Aspergillus clavatus [9] = experiment: Antifungal activity against Aspergillus clavatus MTCC 1323; assay type: functional
# Escherichia coli [10] = experiment: Antibacterial activity against Escherichia coli MTCC 443 at 250 ug/ml after 24 hrs by Kirby-Bauer method; assay type: functional; details: MTCC 443, 24 h, read-out: IZ
# [11] = Cytotoxicity against human MT4 cells by MTT assay; assay type: cell-based
# Streptococcus pyogenes [12] = experiment: Antibacterial activity against Streptococcus pyogenes MTCC 442 after 24 hrs by broth dilution method; assay type: functional; details: MTCC 442, 24 h
# Pseudomonas aeruginosa [13] = experiment: Antibacterial activity against Pseudomonas aeruginosa MTCC 424 after 24 hrs by broth dilution method; assay type: functional; details: MTCC 424, 24 h
# Aspergillus clavatus [14] = experiment: Antifungal activity against Aspergillus clavatus MTCC 1323 at 250 ug/ml after 74 hrs by Kirby-Bauer method; assay type: functional; details: MTCC 1323, 74 h, read-out: IZ
# [15] = Cytotoxicity against human HEL cells; assay type: cell-based
# Pseudomonas aeruginosa [16] = experiment: Antibacterial activity against Pseudomonas aeruginosa MTCC 424 at 250 ug/ml after 24 hrs by Kirby-Bauer method; assay type: functional; details: MTCC 424, 24 h, read-out: IZ
# Human alphaherpesvirus 3 [17] = experiment: Antiviral activity against Varicella-zoster virus Oka expressing thymidine kinase infected in HEL cells assessed as reduction in plaque formation; assay type: functional, organism-based; details: Human alphaherpesvirus 3, strain Oka vaccine
# Aspergillus niger [18] = experiment: Antifungal activity against Aspergillus niger MTCC 282 at 250 ug/ml after 74 hrs by Kirby-Bauer method; assay type: functional; details: MTCC 282, 74 h, read-out: IZ
# [19] = system: Human immunodeficiency virus 1; experiment: Antiviral activity against HIV1 3B infected in MT4 cells assessed as inhibition of virus-induced cytopathogenicity by MTT assay; assay type: functional, organism-based; details: Human immunodeficiency virus 1, 3B
# Staphylococcus aureus [20] = experiment: Antibacterial activity against Staphylococcus aureus MTCC 96 after 24 hrs by broth dilution method; assay type: functional; details: MTCC 96, 24 h
# Human alphaherpesvirus 3 [21] = experiment: Antiviral activity against thymidine kinase-deficient Varicella-zoster virus infected in HEL cells assessed as reduction in plaque formation; assay type: functional, organism-based; details: Human alphaherpesvirus 3, HEL
# [22] = system: Human immunodeficiency virus 2; experiment: Antiviral activity against HIV2 ROD infected in MT4 cells assessed as inhibition of virus-induced cytopathogenicity by MTT assay; assay type: functional, organism-based; details: Human immunodeficiency virus 2, ISOLATE ROD
# Aspergillus niger [23] = experiment: Antifungal activity against Aspergillus niger MTCC 282; assay type: functional
# [24] = Selectivity index, ratio of CC50 for human MT4 cells to IC50 for HIV2 ROD; assay type: functional
# Escherichia coli [25] = experiment: Antibacterial activity against Escherichia coli MTCC 443 after 24 hrs by broth dilution method; assay type: functional; details: MTCC 443, 24 h
smiles,measurement,setting,value
[O-]c1on[n+](-c2ccc(Cc3ccc(-[n+]4noc([O-])c4CN4CCN(c5cccc(Cl)c5)CC4)cc3)cc2)c1CN1CCN(c2cccc(Cl)c2)CC1,zone of inhibition at 250 µg/mL,Staphylococcus aureus [1],19 mm
same,MIC,Candida albicans [2],1000 µg/mL
same,MCC,[3],≥ 20 µg/mL
same,EC50,Cytomegalovirus [4],20 µg/mL
same,Ratio CC50/IC50,[5],<1
same,zone of inhibition at 250 µg/mL,Candida albicans [6],21 mm
same,EC50,Cytomegalovirus [7],> 4 µg/mL
same,zone of inhibition at 250 µg/mL,Streptococcus pyogenes [8],19 mm
same,MIC,Aspergillus clavatus [9],1000 µg/mL
same,zone of inhibition at 250 µg/mL,Escherichia coli [10],18 mm
same,CC50,[11],13.2 µg/mL
same,MIC,Streptococcus pyogenes [12],200 µg/mL
same,MIC,Pseudomonas aeruginosa [13],500 µg/mL
same,zone of inhibition at 250 µg/mL,Aspergillus clavatus [14],22 mm
same,CC50,[15],> 100 µg/mL
same,zone of inhibition at 250 µg/mL,Pseudomonas aeruginosa [16],17 mm
same,EC50,Human alphaherpesvirus 3 [17],> 4 µg/mL
same,zone of inhibition at 250 µg/mL,Aspergillus niger [18],20 mm
same,IC50,[19],> 13.2 µg/mL
same,MIC,Staphylococcus aureus [20],250 µg/mL
same,EC50,Human alphaherpesvirus 3 [21],> 4 µg/mL
same,IC50,[22],> 13.2 µg/mL
same,MIC,Aspergillus niger [23],1000 µg/mL
same,Ratio CC50/IC50,[24],<1
same,MIC,Escherichia coli [25],250 µg/mL
